According to patent publication US7582604B2, “Template-fixed peptidomimetics with antibacterial activity” (Polyphor Ltd., priority 2002, dated 2009):
Converted amounts (≈) assume the structure as drawn. Where a SMILES comes first, the peptide text is derived from it. [ ]: non-standard residue; d: D form.

Legend:
[1] = system: human red blood cells (hRBC); assay type: cell-based; settings: red cells of human, 1 h
Procedure: The peptides were tested for their hemolytic activity against human red blood cells (hRBC). Fresh hRBC were washed three times with phosphate buffered saline (PBS) by centrifugation for 10 min at 2000×g. Peptides at a concentration of 100 μg/ml were incubated with 20% v/v hRBC for 1 hour at 37° C. The final erythrocyte concentration was appr. 0.9×10^9/ml. A value of 0% resp. 100% cell lysis was determined by incubation of the hRBC in the presence of PBS alone and resp. 0.1% Triton X-100 in H2O. The samples were centrifuged and the supernatant was 20 fold diluted in PBS buffer and the optical density (OD) of the sample at […] was measured. The 100% lysis value (OD540H2O) gave an OD of approximately 1.6-2.0. Percent hemolysis was calculated as follows: […]

[2] = system: Escherichia coli ATCC 43827; assay type: cell-based
[3] = system: Staphylococcus aureus ATCC 29213; assay: MIC, NCCLS broth microdilution in Mueller-Hinton broth; assay type: cell-based; settings: 18-20 hours at 37° C.
Procedure: (§1) Lyophilized peptides were weighed on a Microbalance (Mettler MT5) and dissolved in sterile water containing 0.01% acetic acid.
(§2) The selective antimicrobial activities of the peptides were determined by the standard NCCLS broth microdilution method (see ref 1, below) examined in sterile 96-wells plates (Nunclon polystyrene microtiter plates) in a total volume of 100 μl. Innocula of the microorganisms were prepared with 0.5 Mcfarland standard and then diluted into Müeller-Hinton (MH^+) broth to give appr. 10^6 colony forming units (CFU)/rnl for bacteria Aliquots (50 μl) of the innocula were added to 50 μl of MH broth containing the peptide in serial twofold dilutions. For the screening of the peptides displaying selectivity, the following microorganisms were used: Escherichia coli (ATCC 25922), Pseudomonas aeruginosa (P. aeruginosa) (ATCC 27853), Staphylococcus aureus (ATCC 29213 and ATCC 25923), and clinical isolates of Pseudomonas aeruginosa (P. aeruginosa) V02 16085 and Acinetobacter (Acinetobacter V04 19905/1, Acinetobacter V12 21143/1 and Acinetobacter V12 21193/1). Antimicrobial activities of the peptides were expressed as the minimal inhibitory concentration (MIC) in μg/ml at which no visible growth was observed after 18-20 hours of incubation of the microtiter plates at 37° C.

[4] = system: Acinetobacter V12 21193/1 (clinical isolate); assay type: cell-based
Procedure: as §1, §2
(§3) Salt sensitivity of the peptides was tested by the microtiter serial dilution assay as described above. Only MH broth was replaced by MH broth containing 0.9% NaCl.

[5] = system: Acinetobacter V12 21143/1 (clinical isolate); assay type: cell-based
Procedure: as §1, §2, §3

[6] = system: Escherichia coli ATCC 25922; assay type: cell-based
Procedure: as §1, §2, §3

[7] = system: P. aeruginosa ATCC 278853; assay type: cell-based, Pseudomonas aeruginosa
Procedure: as §1, §2, §3

[8] = system: P. aeruginosa VO216085 (clinical isolate); assay type: cell-based, Pseudomonas aeruginosa
Procedure: as §1, §2, §3

Compound | Hemolysis at 100 μg/ml (percentage hemolysis) [1] [%] | Minimal inhibitory concentration (MIC) Escherichia coli ATCC 43827 [2] [µg/mL] | Minimal inhibitory concentration (MIC) Staphylococcus attreus ATCC 29213 [3] [µg/mL] | Minimal inhibitory concentration (MIC) Acinetobacter V12 21193/1 [4] [µg/mL] | Minimal inhibitory concentration (MIC) Acinetobacter V12 21143/1 [5] [µg/mL] | Minimal inhibitory concentration (MIC) Escherichia coli ATCC 25922 [6] [µg/mL] | Minimal inhibitory concentration (MIC) P. aeruginosa ATCC 278853 [7] [µg/mL] | Minimal inhibitory concentration (MIC) P. aeruginosa VO216085 [8] [µg/mL]
CC(C)C[C@@H]1NC(=O)[C@H](Cc2c[nH]c3ccccc23)NC(=O)[C@H](CCCNC(=N)N)NC(=O)[C@@H]2CCCN2C(=O)[C@H]2CCCN2C(=O)[C@H](CCCNC(=N)N)NC(=O)[C@H](C(C)C)NC(=O)[C@H](Cc2ccc(O)cc2)NC(=O)[C@H](CCCCN)NC(=O)[C@H](Cc2c[nH]c3ccccc23)NC(=O)[C@H](CCCNC(=N)N)NC(=O)[C@H](CCCNC(=N)N)NC(=O)[C@H](CCCCN)NC(=O)[C@H](CCCCN)NC1=O [Ex. 2] (cyclo(RWLKKRRWKYVR[dP]P)) | 0.5 | 100 (≈ 51.2 µM) | 100 (≈ 51.2 µM) | 25 (≈ 12.8 µM) | 12.5 (≈ 6.41 µM) | 100 (≈ 51.2 µM) | 9.4 (≈ 4.82 µM) | 6.2 (≈ 3.18 µM)
CC(C)C[C@@H]1NC(=O)[C@H](Cc2c[nH]c3ccccc23)NC(=O)[C@H](CCCNC(=N)N)NC(=O)[C@H](CCCNC(=N)N)NC(=O)[C@H](CCCCN)NC(=O)[C@H](CCCCN)NC(=O)[C@H](CC(C)C)NC(=O)[C@H](Cc2c[nH]c3ccccc23)NC(=O)[C@H](CCCNC(=N)N)NC(=O)[C@@H]2CCCN2C(=O)[C@H]2CCCN2C(=O)[C@H](CCCNC(=N)N)NC(=O)[C@H](Cc2ccc(O)cc2)NC(=O)[C@H](Cc2ccc(O)cc2)NC1=O [compound 1] (cyclo(RWLKKRRWLYYR[dP]P)) | 0.5 | 200 (≈ 100 µM) | 25 (≈ 12.5 µM) | 6.2 (≈ 3.1 µM) | 6.2 (≈ 3.1 µM) | 100 (≈ 50 µM) | 50 (≈ 25 µM) | 50 (≈ 25 µM)
CC(C)C[C@@H]1NC(=O)[C@H](Cc2c[nH]c3ccccc23)NC(=O)[C@H](CCCNC(=N)N)NC(=O)[C@@H]2CCCN2C(=O)[C@H]2CCCN2C(=O)[C@H](CCCNC(=N)N)NC(=O)[C@H](Cc2ccc(O)cc2)NC(=O)[C@H]([C@@H](C)O)NC(=O)[C@H](CCCCN)NC(=O)[C@H](Cc2c[nH]c3ccccc23)NC(=O)[C@H](CCCNC(=N)N)NC(=O)[C@H](CCCNC(=N)N)NC(=O)[C@H](CCCCN)NC(=O)[C@H](CCCCN)NC1=O [compound 3] (cyclo(RWLKKRRWKTYR[dP]P)) | 1.5 | 200 (≈ 102 µM) | 100 (≈ 51.2 µM) | 100 (≈ 51.2 µM) | 25 (≈ 12.8 µM) | 200 (≈ 102 µM) | 200 (≈ 102 µM) | 9.4 (≈ 4.81 µM)
CC(C)C[C@@H]1NC(=O)[C@H](Cc2c[nH]c3ccccc23)NC(=O)[C@H](CCCNC(=N)N)NC(=O)[C@@H]2CCCN2C(=O)[C@H]2CCCN2C(=O)[C@H](CCCNC(=N)N)NC(=O)[C@H](Cc2ccc(O)cc2)NC(=O)[C@H](CCC(N)=O)NC(=O)[C@H](CCCCN)NC(=O)[C@H](Cc2c[nH]c3ccccc23)NC(=O)[C@H](CCCNC(=N)N)NC(=O)[C@H](CCCNC(=N)N)NC(=O)[C@H](CCCCN)NC(=O)[C@H](CCCCN)NC1=O [compound 4] (cyclo(RWLKKRRWKQYR[dP]P)) | 0.6 | 200 (≈ 101 µM) | 100 (≈ 50.5 µM) | 25 (≈ 12.6 µM) | 12.5 (≈ 6.31 µM) | 100 (≈ 50.5 µM) | 6.2 (≈ 3.13 µM) | 3.1 (≈ 1.57 µM)
CC(C)C[C@@H]1NC(=O)[C@H](Cc2c[nH]c3ccccc23)NC(=O)[C@H](CCCNC(=N)N)NC(=O)[C@@H]2CCCN2C(=O)[C@H]2CCCN2C(=O)[C@H](CCCNC(=N)N)NC(=O)[C@H](Cc2ccc(O)cc2)NC(=O)[C@H](Cc2ccc(O)cc2)NC(=O)[C@H](CCCCN)NC(=O)[C@H](Cc2c[nH]c3ccccc23)NC(=O)[C@H](CCCNC(=N)N)NC(=O)[C@H](CCCNC(=N)N)NC(=O)[C@H](CCCCN)NC(=O)[C@H](C(C)C)NC1=O [compound 5] (cyclo(RWLVKRRWKYYR[dP]P)) | 0.5 |  | 100 (≈ 50.3 µM) |  |  |  |  | 
CC(C)C[C@@H]1NC(=O)[C@H](Cc2c[nH]c3ccccc23)NC(=O)[C@H](CCCNC(=N)N)NC(=O)[C@@H]2CCCN2C(=O)[C@H]2CCCN2C(=O)[C@H](CCCNC(=N)N)NC(=O)[C@H](Cc2ccc(O)cc2)NC(=O)[C@H](Cc2ccc(O)cc2)NC(=O)[C@H](C(C)C)NC(=O)[C@H](Cc2c[nH]c3ccccc23)NC(=O)[C@H](CCCNC(=N)N)NC(=O)[C@H](CCCNC(=N)N)NC(=O)[C@H](CCCCN)NC(=O)[C@H](CCCCN)NC1=O [compound 6] (cyclo(RWLKKRRWVYYR[dP]P)) | 0.5 |  | 100 (≈ 50.3 µM) |  |  |  |  | 
CC(C)C[C@@H]1NC(=O)[C@H](Cc2c[nH]c3ccccc23)NC(=O)[C@H](CCCNC(=N)N)NC(=O)[C@@H]2CCCN2C(=O)[C@H]2CCCN2C(=O)[C@H](CCCNC(=N)N)NC(=O)[C@H](CCC(N)=O)NC(=O)[C@H](Cc2ccc(O)cc2)NC(=O)[C@H](CCCCN)NC(=O)[C@H](Cc2c[nH]c3ccccc23)NC(=O)[C@H](CCCNC(=N)N)NC(=O)[C@H](CCCNC(=N)N)NC(=O)[C@H](CCCCN)NC(=O)[C@H](CCCCN)NC1=O [compound 7] (cyclo(RWLKKRRWKYQR[dP]P)) | 0.7 |  | 200 (≈ 101 µM) |  |  |  |  | 
CC(C)C[C@@H]1NC(=O)[C@H](Cc2c[nH]c3ccccc23)NC(=O)[C@H](CCCNC(=N)N)NC(=O)[C@@H]2CCCN2C(=O)[C@H]2CCCN2C(=O)[C@H](CCCNC(=N)N)NC(=O)[C@H](CC(C)C)NC(=O)[C@H](Cc2ccc(O)cc2)NC(=O)[C@H](CCCCN)NC(=O)[C@H](Cc2c[nH]c3ccccc23)NC(=O)[C@H](CCCNC(=N)N)NC(=O)[C@H](CCCNC(=N)N)NC(=O)[C@H](CCCCN)NC(=O)[C@H](CCCCN)NC1=O [compound 8] (cyclo(RWLKKRRWKYLR[dP]P)) | 0.4 |  | 100 (≈ 50.9 µM) |  |  |  |  | 
